Test results as given in ChEMBL document CHEMBL5543122, “Discovery of HC-7366: An Orally Bioavailable and Efficacious GCN2 Kinase Activator” (J Med Chem, 2024).
Converted amounts (≈) assume the structure as drawn.

Legend:
[1] = Unbound clearance in Sprague-Dawley rat plasma at 1 mg/kg, iv measured upto 24 hrs; assay type: ADME, organism-based; settings: in vivo
[2] = Cmax in BALB/c mouse at 3 mg/kg, po and 1 mg/kg, iv measured upto 24 hrs; assay type: ADME, organism-based; settings: in vivo
[3] = Unbound AUC in Sprague-Dawley rat at 3 mg/kg, po measured upto 24 hrs; assay type: ADME, organism-based; settings: in vivo
[4] = Intrinsic clearance in human hepatocytes assessed per 10^4 cells at 1 uM measured upto 120 mins by UPLC-MS/MS analysis; assay type: ADME, cell-based, Hepatocyte; settings: 2 h
[5] = Oral bioavailability in Sprague-Dawley rat at 3 mg/kg measured upto 24 hrs; assay type: ADME, organism-based; settings: in vivo, po, 3 mg/kg, 24 h
[6] = target: T1, Serine/threonine-protein kinase Nek1 (Homo sapiens, UniProt Q96PY6); assay: Inhibition of NEK1 in human MOLM16 cells; assay type: cell-based
T1 sequence (Q96PY6 whole entry): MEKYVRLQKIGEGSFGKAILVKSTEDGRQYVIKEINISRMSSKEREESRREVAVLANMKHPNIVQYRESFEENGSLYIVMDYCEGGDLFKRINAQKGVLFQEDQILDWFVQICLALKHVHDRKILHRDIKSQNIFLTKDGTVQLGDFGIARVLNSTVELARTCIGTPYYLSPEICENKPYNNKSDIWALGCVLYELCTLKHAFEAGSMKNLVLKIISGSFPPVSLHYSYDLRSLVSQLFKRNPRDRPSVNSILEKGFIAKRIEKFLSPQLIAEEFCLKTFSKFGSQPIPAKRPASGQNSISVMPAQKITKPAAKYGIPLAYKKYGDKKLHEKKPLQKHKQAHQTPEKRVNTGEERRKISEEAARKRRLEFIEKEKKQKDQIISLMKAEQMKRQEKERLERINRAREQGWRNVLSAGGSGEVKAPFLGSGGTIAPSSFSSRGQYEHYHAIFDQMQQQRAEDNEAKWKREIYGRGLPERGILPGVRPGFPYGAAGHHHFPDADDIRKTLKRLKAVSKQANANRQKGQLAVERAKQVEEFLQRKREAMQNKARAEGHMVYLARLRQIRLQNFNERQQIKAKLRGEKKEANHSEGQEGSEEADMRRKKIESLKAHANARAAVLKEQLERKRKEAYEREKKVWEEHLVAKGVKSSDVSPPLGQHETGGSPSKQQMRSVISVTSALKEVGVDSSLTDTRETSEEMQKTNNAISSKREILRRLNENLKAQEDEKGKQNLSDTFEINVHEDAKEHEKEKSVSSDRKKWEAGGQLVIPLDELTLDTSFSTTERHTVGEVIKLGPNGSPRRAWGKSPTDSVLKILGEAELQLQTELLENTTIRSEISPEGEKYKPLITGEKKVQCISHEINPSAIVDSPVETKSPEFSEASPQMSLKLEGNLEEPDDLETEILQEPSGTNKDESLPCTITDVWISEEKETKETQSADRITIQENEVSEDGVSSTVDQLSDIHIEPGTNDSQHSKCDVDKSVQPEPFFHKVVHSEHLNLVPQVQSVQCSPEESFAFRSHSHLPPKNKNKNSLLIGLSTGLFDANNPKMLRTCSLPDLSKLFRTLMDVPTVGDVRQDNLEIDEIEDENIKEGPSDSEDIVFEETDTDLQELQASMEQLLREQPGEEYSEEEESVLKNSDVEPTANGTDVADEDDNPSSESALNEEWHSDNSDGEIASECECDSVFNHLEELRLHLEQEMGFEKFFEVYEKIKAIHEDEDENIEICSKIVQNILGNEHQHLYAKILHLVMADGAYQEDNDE

[7] = Antitumor activity against human MOLM16 cells xenografted in BALB/c nude mouse assessed as tumor growth inhibition at 1 mg/kg administered twice a day for 17 days; assay type: functional, MOLM-16; settings: MOLM16, 408 h, time 17 day, read-out: TGI
[8] = test system: HT-1080; assay: Antitumor activity against human HT-1080 cells xenografted in BALB/c nude mouse assessed as mean tumor growth inhibition at 1 mg/kg administered twice a day for 14 days; assay type: functional; settings: HT-1080, 336 h, time 14 day, read-out: TGI
[9] = Unbound fraction in Sprague-Dawley rat plasma at 1 mg/kg, iv measured upto 24 hrs; assay type: ADME, organism-based
[10] = Volume of distribution at steady state in Sprague-Dawley rat at 1 mg/kg, iv measured upto 24 hrs; assay type: ADME, organism-based; settings: in vivo, read-out: Vdss
[11] = target: T2, Dual specificity mitogen-activated protein kinase kinase 5 (Homo sapiens, UniProt Q13163); assay: Inhibition of MAP2K5 in human MOLM16 cells; assay type: cell-based
T2 sequence (Q13163 whole entry): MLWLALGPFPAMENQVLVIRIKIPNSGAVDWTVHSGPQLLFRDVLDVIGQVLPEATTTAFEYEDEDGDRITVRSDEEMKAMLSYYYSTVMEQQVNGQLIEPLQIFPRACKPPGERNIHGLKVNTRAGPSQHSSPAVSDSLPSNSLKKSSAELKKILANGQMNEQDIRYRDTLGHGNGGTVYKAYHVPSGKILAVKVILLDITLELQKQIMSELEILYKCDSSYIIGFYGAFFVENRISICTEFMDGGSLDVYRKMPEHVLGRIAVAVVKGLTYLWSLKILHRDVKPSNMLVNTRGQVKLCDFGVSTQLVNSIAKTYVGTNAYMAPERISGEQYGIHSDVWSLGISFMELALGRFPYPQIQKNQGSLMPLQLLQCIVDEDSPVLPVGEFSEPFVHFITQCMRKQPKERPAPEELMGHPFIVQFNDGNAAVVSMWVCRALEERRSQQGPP

[12] = physchem; settings: SGF
Description: Thermodynamic solubility in SGF at 1 mg incubated for 24 hrs by UPLC-MS/MS analysis

[13] = Unbound Cmax in BALB/c mouse at 3 mg/kg, po and 1 mg/kg, iv measured upto 24 hrs; assay type: ADME, organism-based; settings: in vivo

CL free [1]: 290 mL/min/kg
Cmax [2]: 26.1 µM
fAUC [3]: 0.048 µM·h
CLH [4]: 4.7 µL/min
F [5]: 29%
IC50 [6]: 9.3 µM
fraction unbound at 24 h [9]: 0.001
Vd [10]: 0.093 L/kg
IC50 [11]: 2.9 µM
solubility thermodynamic at 24 h [12]: 0.89 µM (≈ 0.453 µg/mL)
fCmax [13]: 52 nM
SMILES: CNC(=O)c1ncn2cc(-c3c(F)ccc(NS(=O)(=O)c4cc(Cl)cnc4OC)c3F)ncc12
inhibition in vivo at 1 mg/kg [7]: 97%
inhibition in vivo at 1 mg/kg [8]: 80%
